pIC50: −log10 of the molar value. Like-named read-outs stand apart in the source and are kept apart here.
Experiments:
[1] = test system: Namalwa tumors (human Burkitt lymphoma cell line); test: Mouse xenograft model of human Burkitt lymphoma; type: in vivo; conditions: for Tumor growth: 10 mg/kg I.P. twice a day for 4 days, weekly over 3 weeks, JJ08: 5 days after administration
Method: The new NAMPT inhibitors (JJ08, FEI191 and FEI199 (in comparison with lead compound, FK866 (APO866))) were evaluated in vivo in a mouse xenograft model of human Burkitt lymphoma. […] non-leaky C.B.-17 SCID mice (8 to 10 weeks old; Iffa Credo, L’Arbresle, France) were housed in micro-isolator cages in a specific pathogen-free room in the animal facility at the University Hospital of Lausanne. Firstly, the mice spent one week alone to acclimatize to their new environment. All animals were handled according to the institutional regulations and with the prior approval of the animal ethic committee of the University of Lausanne. Manipulations were performed in sterile conditions under a laminar flow hood. Firstly, Namalwa cells (1 × 10^7) were injected subcutaneously into the mouse flank side. Once the tumors became palpable and reached a size between 100 and 150 mm^3, mice (n = five/ group) were randomized into control and treated groups. The drugs were administered intraperitoneally (10 mg/kg body weight) in 200 µL 0.9% saline twice a day for 4 days, repeated weekly over 3 weeks. The control group was treated only with 200 µL 0.9% saline. Every day, the animals were monitored for any signs of illness, and in cases where the tumor size reached a diameter of 15 mm, they were sacrificed immediately.
Tumor size (A) and survival rate (B) of mice xenografted with Namalwa cells treated or untreated with NAMPT inhibitors were monitored for 21 days. Twenty-five 6-to-8-week-old C.B.-17 SCID mice were transplanted subcutaneously with Namalwa cells (10^7). Once tumors reached a volume of approximately 100–150 mm^3, at day 14, mice were randomized into five groups of animals (n = 5) with similar body weight. Control groups received vehicle (pink line) and JJ08 (10 mg/kg; light blue line), FEI191 (10 mg/kg; red line), FEI199 (10 mg/kg; green line) or APO866 (10 mg/kg; blue line) were administered as described in the Materials and Methods section. […] Data were analyzed by the Kaplan–Meier survival analysis with log-rank test.

[2] = test system: Namalwa cells (Burkitt lymphoma); test: Cell death after 96 h of treatment (ANXN/7AAD flow cytometry), Namalwa; type: cell-based; conditions: Homo sapiens
Method: (§1) Four hematological cell lines (ML2—acute myeloid leukemia; Jurkat—acute lymphoblastic leukemia; Namalwa—Burkitt lymphoma; and RPMI8226—multiple myeloma) were purchased from DSMZ (German Collection of Microorganisms and Cell Cultures, Braunschweig, Germany) or ATCC.
(§2) All cells were cultured in RPMI medium (Invitrogen AG, 61870-01) supplemented with 10% heat inactivated fetal calf serum (Amimed, 2-01F30-I) and 1% penicillin/streptomycin at 37 °C (Amimed, 4-01F00-H) in a humidified atmosphere of 95% air and 5% CO2.
(§3) To determine the cell death induced by NAMPT inhibitors, malignant cells were stained with ANNEXIN-V (ANXN, eBioscience, BMS306FI/300) and 7-aminoactinomycin D (7AAD, Immunotech, A07704) as described by the manufacturer and analyzed using flow cytometry. Dead cells were identified as ANXN+7AAD+ /7AAD+ and early apoptotic cells as ANXN+ 7AAD-. Specific cell death induced by inhibitors was calculated using the following formula: percent of cell death induced by compound = [(S – C) / (100 – C)] × 100; where S = treated sample cell death and C = untreated sample cell death.

[3] = Pharmacokinetics in mice after intraperitoneal administration; type: in vivo; conditions: for CL/F / half-life / AUC(0-t) / Cmax / Tmax / Vd/F: female SCID mice, intraperitoneal, 20 mg/kg (Figure S1); for CL/F: dose divided by AUC0-24; for half-life / AUC(0-t) / Cmax / Tmax / Vd/F: plasma; for Vd/F: (CL/F)/λz, read-out: Vz/F
Method: Concentration measurements in mice EDTA plasma samples were performed using a Vanquish Flex ultra-high-performance liquid chromatography (UHPLC) system attached to a TSQ Quantis^TM triple quadrupole mass spectrometer (MS) (ThermoFisher Scientific, Waltham, MA, USA). The chromatographic column was a Luna Omega Polar C18 3 µm, 50 × 2.1 mm from Phenomenex (Torrance, CA, USA), kept at 40 °C in a UHPLC oven. The mobile phase was made of water and acetonitrile (ACN) with 0.1% formic acid in each. The gradient program ranged from 20 to 95% ACN in 1.5 min and the total method duration (including equilibration for the next injection) was 3 min. The flow rate and injection volume were 0.5 mL/min and 5 µL, respectively.
For the sample preparation, 90 µL of ACN was added to an aliquot of 30 µL of mouse plasma for protein precipitation. The mixture was then centrifugated at 14,000 rpm and the supernatant was directly injected in the UHPLC–MS.
Drug plasma concentrations were measured at selected time points after intraperitoneal administration in mice (sacrificed mice in triplicates for each time point). Samples were analyzed on two separate occasions for each sampling. Then, pharmacokinetic (PK) parameters were computed using standard non-compartmental calculations for geometric means of the measured concentrations using the “PKNCA R Package” (R version 4.0.2, R Development Core Team, http://www.r-project.org/ access date: 4 February 2023).
The area under the curve (AUC0-24) was calculated for the four drugs using the trapezoidal and log-trapezoidal rule when appropriate. The terminal rate constant (λz) was approximated using the slope of the terminal phase, while the half-life (T1/2) was calculated as ln(2)/λz, the apparent clearance (CL/F) as the dose divided by AUC0-24 and the apparent volume of distribution (Vz/F) as (CL/F)/λz.

[4] = test system: ML2 cells (acute myeloid leukemia); test: Cell death after 96 h of treatment (ANXN/7AAD flow cytometry), ML2; type: cell-based; conditions: Homo sapiens, ML-2; ML2, 96 h
Method: as §1, §2, §3

[5] = test system: Jurkat cells (acute lymphoblastic leukemia); test: Cell death after 96 h of treatment (ANXN/7AAD flow cytometry), Jurkat; type: cell-based; conditions: Homo sapiens
Method: as §1, §2, §3

purified NAMPT = target: T1, purified NAMPT (Homo sapiens, UniProt P43490); test: NAMPT enzymatic activity assay (colorimetric kit); type: biochemical; conditions: 1 µM final concentration
T1 construct: purchased Abcam ab221819
T1 sequence (P43490 whole entry): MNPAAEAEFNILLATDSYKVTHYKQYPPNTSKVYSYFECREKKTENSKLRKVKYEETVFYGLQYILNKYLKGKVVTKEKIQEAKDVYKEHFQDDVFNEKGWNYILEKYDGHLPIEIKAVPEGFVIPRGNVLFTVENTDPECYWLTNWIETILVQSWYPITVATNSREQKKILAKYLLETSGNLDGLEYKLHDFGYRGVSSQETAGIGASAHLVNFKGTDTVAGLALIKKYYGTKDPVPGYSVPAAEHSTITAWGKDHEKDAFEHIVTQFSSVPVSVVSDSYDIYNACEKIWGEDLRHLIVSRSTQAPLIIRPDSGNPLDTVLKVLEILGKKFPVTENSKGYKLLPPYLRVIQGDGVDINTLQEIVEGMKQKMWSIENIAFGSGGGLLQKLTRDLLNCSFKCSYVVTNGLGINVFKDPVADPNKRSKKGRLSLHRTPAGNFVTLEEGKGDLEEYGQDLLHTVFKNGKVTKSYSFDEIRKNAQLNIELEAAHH
Method: The ability of FK866 (APO866) analogues to inhibit NAMPT activity was assessed with an NAMPT Activity Assay Kit (Colorimetric) (Abcam, ab221819, Cambridge, UK) according to the manufacturer’s instructions. Briefly, NAMPT inhibitors were dissolved in DMSO to a final concentration of 1 µM and distributed in a 96-well plate in duplicate. Then, a reaction mix containing assay buffer, ATP, NMNAT1, NAM, PRPP and ddH2O was added and the plate was incubated at 30 °C for 60 min. After, to measure the generated NAD^+, a mix of WST-1, ADH, diaphorase and ethanol was added to the wells. The absorbance was measured in kinetic mode at 450 nm on a microplate reader for 45 min at 30 °C.
Figure 2 New compounds with a potent NAMPT inhibitory activity. Compounds were added in 1 µM final concentration to purified NAMPT and incubated with co-substrates, resulting in a reduction of tetrazolium salt (WST-1) to colorful formazan. The amount of formed dye is directly proportional to the enzyme activity. The absorbance of the dye was detected at OD 450 nm.

[6] = test system: RPMI8226 cells (multiple myeloma); test: Cell death after 96 h of treatment (ANXN/7AAD flow cytometry), RPMI8226; type: cell-based; conditions: Homo sapiens, RPMI-8226; RPMI8226, 96 h
Method: as §1, §2, §3

[7] = test system: ML2, Jurkat, Namalwa and RPMI8226 cells; test: Cell death in the four hematological cancer cell lines, statements for all lines together; type: cell-based, human; conditions: 96 h
Method: as §1, §2, §3
A dose-dependent analysis of cell death induced by NAMPT inhibitors on ML2 (A), Jurkat (B), Namalwa (C) and RPMI8226 (D) cell lines. The cells were treated with various concentrations of NAMPT inhibitors for 96 h and cell death was assessed by flow cytometry using ANXN and 7AAD staining. […]

Compound	Tumor growth [1]	pIC50 [2]	CL/F [3] [mL/h]	half-life ([3]; mouse, ip) [h]	AUC(0-t) ([3]; mouse, ip, read-out: AUC0-24) [ng·h/mL]	Vd/F ([3]; mouse, ip) [L]	pIC50 [4]	pIC50 [5]	Inhibition of NAMPT activity (purified NAMPT)	pIC50 [6]	Cmax [3]	Tmax [3] [h]	other results
O=C(/C=C/c1cccnc1)NCCCCC1CCN(C(=O)c2ccco2)CC1 [JJ08, (E)-N-(4-(1-(furan-2-carbonyl)piperidin-4-yl)butyl)-3-(pyridin-3-yl)acrylamide]	completely eradicated tumor growth	9.24	53	6.58	7560	0.502	9.29	9.07	full inhibition	9.52	–	–	Signs of toxicity (loss of body weight, lethargy, rough coat, premature death) ([1]; xenografted mice, 10 mg/kg I.P.): well tolerated; AUC0-24, fold lower than that of APO866 ([3]; mice, I.P.): approximately 2 fold; CL/F, fold higher compared to APO866 ([3]; mice, I.P.): 2 fold; Cmax ([3]; mouse, ip, read-out: Cmax): 24300 ng/mL; Tmax ([3]; mouse, ip, read-out: Tmax): 0.17 h
O=C(/C=C/c1cccnc1)NCCCCC1CCN(C(=O)c2ccccc2)CC1 [APO866, reference compound]	–	9.24	24	3.74	16400	0.131	9.39	9.33	–	9.64	28,028 ng/mL	0.17	–
N#CN=C(NC/C=C/CCC1CCN(C(=O)c2ccco2)CC1)Nc1ccncc1 [FEI199]	did not stop tumor progression, but significantly delayed it	9.54	108	–	–	–	9.68	9.60	full inhibition	9.92	12,031 ng/mL	0.17	Clearance, fold higher than APO866 or JJ08 ([3]; mice, I.P.): more than 4 fold; AUC(0-t) ([3]; mouse, ip, AUC calculated from PK measurements up to 8 h, read-out: AUC0-24 (*)): 3720 ng·h/mL; pIC50 ([7]; Homo sapiens, all four cell lines, read-out: IC50 in all malignancies): > 9.52; Concentration inducing maximal cell killing ([7]; all tested cell lines): ≤ 0.5 nM

Source: paper PMC9967653, “Anticancer Activities of Novel Nicotinamide Phosphoribosyltransferase Inhibitors in Hematological Malignancies” (Molecules, 2023)
